Here are results for 4 compounds from patent US4975462A, “Antiarthritic α-arylcarbamoyl cyanoacetic acid derivatives” (Bristol-Myers Company, priority 1988, dated 1990).

The test system of experiment [1] is carrageenin-induced paw edema. The experiment can be described thus: Carrageenin induced paw edema in the rat (CIP). The experiment is classed as in vivo, male Sprague Dawley rats. The note with it: single oral dose of 50 mg/kg 30 min. prior to carrageenin injection; 4 hrs. after carrageenin injection. As for the experimental part: B. Carrageenin induced paw edema in the rat.
This test is based on the procedure originally described by Holsapple and Yim (Inflammation, 1984, 8:223). Six male Sprague Dawley rats weighing approx. 300 gm were used in each experimental group. The rats had been starved for 24 hours prior to injection of 0.1 ml of 1% carrageenin into the plantar surface of the left hind paw. Test compounds were dosed orally 30 minutes prior to carrageenin administration. The volumes of the left hind paws were measured by mercury displacement at 2,4, and 6 hours following carrageenin injection. The efficacy of a compound was expressed as the percent inhibition of carrageenin injected paw volume as compared to non-injected paw using the following equation: [formula]
C=Vehicle control group (left paw volume-right paw volume)
RX=Drug treated group (left paw volume-right paw volume)
The peak of drug effects usually occurred 2-4 hours following carrageenin injection.
^(c) test compound administered as a single oral dose of 50 mg/kg 30
min. prior to carrageenin injection. % Inhibition determined 4 hrs. after
carrageenin injection; I = <25% reduction in paw volume and A =
≥25% reduction in paw volume.

The subject of experiment [2] is adjuvant-induced polyarthritis (Mycobacterium butyricum). The experiment can be described thus: Modified developing adjuvant arthritis in rats (adjuvant-induced polyarthritis, AIP). As to conditions: p.o., from d. 1-8. The experiment is classed as in vivo, male Lewis rats. The procedure:
A. Modified developing adjuvant arthritis in rats. This test is based on the procedure originally described by Pearson (Proc. Soc. Biol. Med., 1956, pp 91-5). Each experimental group used six male Lewis rats weighing approx. 250 gm. Arthritis was produced by a single intradermal injection of Mycobacterium butyricum (0.6 mg in 0.1 ml mineral oil) into the base of the tail. Test compounds were administered orally, once daily, starting on the day of inoculation (day 1) through day 8. The paw volume (average of two hind paws) was measured by the mercury displacement method at least twice weekly during the course of the experiment (40 to 42 days). The efficacy of a compound was expressed as the percent reduction of hind paw volume of treated vs. untreated rats using the following equation: [formula] PC=positive control (not treated, arthritic) NC=negative control (not treated, non-arthritic) RX=drug group (treated, arthritic) | ^(a) once daily, p.o., from d. 1-8. | ^(b) % Inhibition of paw edema: O = <25; + = 25-<40; ++ = 40-<60; +++ | = 60-80; ++++ = 80-100.

For experiment [3], the system named is adjuvant-induced arthritis. The note with it: J. Med. Chem., 1979, 22:1385-9; cited from earlier work.

Regarding `CNC(=O)C(C#N)C(=O)Nc1ccc(C(F)(F)F)cc1` (stereo not drawn) [Example 3, β-Methylamino-β-oxo-α-(4-trifluoromethylphenyl) carbamoylpropionitrile], in experiment [1], the “CIP (% Inhibition, reduction in paw volume)” value was “A (≥25% reduction in paw volume)”. Also, in experiment [2] (50 mg/kg once daily), the “AIP Inhib. score d. 20-22 (% Inhibition of paw edema)” value is “+++ (60-80)” and the “AIP Inhib. score d. 40-42 (% Inhibition of paw edema)” value is “+++ (60-80)”.

In the case of `CSC(=O)C(C#N)C(=O)Nc1ccc(C(F)(F)F)cc1` (stereo not drawn) [Example 1, β-Methylthio-β-oxo-α-(4-trifluoromethylphenyl)carbamoylpropionitrile], in experiment [1], the “CIP (% Inhibition, reduction in paw volume)” value was “A (≥25% reduction in paw volume)”. In addition, in experiment [2] (50 mg/kg once daily), the “AIP Inhib. score d. 20-22 (% Inhibition of paw edema)” value is listed as “++++ (80-100)” and the “AIP Inhib. score d. 40-42 (% Inhibition of paw edema)” value is “++++ (80-100)”.

For the compound `COC(=O)C(C#N)C(=O)Nc1ccc(C(F)(F)F)cc1` (stereo not drawn) [Example 2, βMethoxy-β-oxo-α-(4-trifluoromethylphenyl)carbamoylpropionitrile], the “CIP (% Inhibition, reduction in paw volume)” value in experiment [1] is listed as “I (<25% reduction in paw volume)”. For the same compound, in experiment [2] (100 mg/kg once daily), the “AIP Inhib. score d. 20-22 (% Inhibition of paw edema)” value is “+++ (60-80)” and the “AIP Inhib. score d. 40-42 (% Inhibition of paw edema)” value is listed as “+++ (60-80)”.

On to `N#CCC(=O)c1ccccc1` [Benzoylacetonitrile (I), Benzoylacetonitrile], for which, in experiment [3], the “inhibition of adjuvant-induced arthritis in rats” value is recorded as “effective inhibitors”.
